Assay results from US8283358B2, “N-sulfonamido polycyclic pyrazolyl compounds” (Elan Pharmaceuticals, Inc., priority 2008, dated 2012).
pIC50: −log10 of the molar value.

Biological target: T1, gamma-secretase (partially purified extract of IMR-32 cell membranes; substrate MBP-C125 Swe fusion protein, cleavage at the Aβ40 site) (Homo sapiens, UniProt P49768)
T1 construct: a partially purified extract of IMR-32 cell membranes as the gamma-secretase enzyme preparation; endogenous in cells; host or cells: IMR-32 cell membranes, partially purified extract
Assay: Gamma-secretase APP enzyme assay (Example A)
Type: biochemical
Settings: class symbols; assay described in Example A; read-out: γAPP IC50
How it was run: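 IMR-32 membrane extract, solubilised in BigCHAPS with brain lipid (0.53 mg/ml) in Hepes/NaCl, preincubated 30 min at 37° C with inhibitor; MBP-C125 Swe substrate then added, 2 h at 37° C, SDS-quenched. Aβ40 neo-epitope product measured by sandwich ELISA against six-point standard curve.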

| pIC50 | SMILES |
| --- | --- |
| > 7.00 | O=S(=O)(c1ccc(C(F)(F)F)nc1)N1C2Cc3n[nH]cc3C1c1cccc(CO)c12 (stereo not shown) [compound 252] |
| 6.30 to 7.00 | CC#Cc1ccc2c(c1)[C@@H]1c3cn[nH]c3C[C@@H]2N1S(=O)(=O)c1ccc(C(F)(F)F)nc1 [compound 261] |
| > 7.00 | O=S(=O)(c1ccc(C(F)(F)F)nc1)N1C2/C(=N/O)c3[nH]ncc3C1c1cccc(Cl)c12 (stereo not shown) [compound 265] |
| > 7.00 | O=S(=O)(c1ccc(C(F)(F)F)nc1)N1[C@H]2c3cn[nH]c3[C@H](F)[C@@H]1c1cccc(F)c12 [compound 267] |
| < 6.00 | O=S(=O)(c1ccc(C(F)(F)F)nc1)N1[C@@H]2c3cn[nH]c3[C@H](F)[C@H]1c1cccc(F)c12 [compound 268] |
| > 7.00 | CO/N=C1\c2[nH]ncc2C2c3cccc(Cl)c3C1N2S(=O)(=O)c1ccc(C(F)(F)F)nc1 (stereo not shown) [compound 269] |
| > 7.00 | C=C1c2[nH]ncc2C2c3cccc(Cl)c3C1N2S(=O)(=O)c1ccc(C(F)(F)F)nc1 (stereo not shown) [compound 272] |
| > 7.00 | CC12C(=O)c3[nH]ncc3C(c3ccccc31)N2S(=O)(=O)c1ccc(C(F)(F)F)nc1 (stereo not shown) [compound 275] |

The next lines start with the molecule.

| SMILES | pIC50 |
| --- | --- |
| O=C1c2[nH]ncc2C2c3c(F)cccc3C1N2S(=O)(=O)c1ccc(Cl)cc1 (stereo not shown) [compound 243] | 6.30 to 7.00 |
| O=S(=O)(c1ccc(C(F)(F)F)nc1)N1C2Cc3[nH]ncc3C1c1cc(Br)ccc12 (stereo not shown) [compound 250] | > 7.00 |
| O=S(=O)(c1ccc(C(F)(F)F)nc1)N1C2Cc3[nH]ncc3C1c1cc(Br)ccc12 (stereo not shown) [compound 251] | 6.30 to 7.00 |
| O=S(=O)(c1ccc(C(F)(F)F)nc1)N1C2Cc3n[nH]cc3C1c1nc(-c3ccc(F)cc3)ccc12 (stereo not shown) [compound 254] | 6.30 to 7.00 |
| O=S(=O)(c1ccc(C(F)(F)F)nc1)N1C2Cc3[nH]ncc3C1c1nc(C3CC3)ccc12 (stereo not shown) [compound 255] | 6.30 to 7.00 |
| O=S(=O)(c1ccc(C(F)(F)F)nc1)N1C2Cc3[nH]ncc3C1c1nc(C3CC3)ccc12 (stereo not shown) [compound 256] | < 6.00 |
| CC12C(=O)c3[nH]ncc3C(c3ccccc31)N2S(=O)(=O)c1ccc(C(F)(F)F)cc1 (stereo not shown) [compound 277] | > 7.00 |

Same assay, conditions: numeric bounds given instead of class symbols; assay described in Example A; read-out: γAPP IC50

| pIC50 | SMILES |
| --- | --- |
| < 7.52 | CC12C(=O)c3[nH]ncc3C(c3ccccc31)N2S(=O)(=O)c1ccc(C(F)(F)F)nc1 (stereo not shown) [compound 276] |

System: gamma secretase in CHO cells expressing APPSwe, NotchΔE and a Notch responsive luciferase reporter gene (SNC-204B8)
Assay: SNC dual cell assay for simultaneous assay of A-beta reduction and Notch signaling (Example D)
Settings: ratio of Notch IC50/Aβ EC50 determined as described in Example D (SNC dual cell assay)
From the text: In order to facilitate testing the potency of gamma-secretase inhibitors on two substrates (APP and Notch) simultaneously, a dual-assay using a CHO cell line stably expressing APPSwe, a Notch substrate lacking the ecto-domain, and a Notch responsive Luciferase reporter gene was developed. CHOSwe cells stably over-express the Swedish FAD isoform of APP, and secrete large amounts of Aβ peptide into the conditioned media from endogenous β- and γ-secretase enzyme activity. A Notch intracellular domain (NICD) responsive reporter gene, and the constitutive gamma-secretase Notch substrate, NotchΔE, were stably introduced into CHOSwe cells in a two step process. CHOSwe cells were first stably transfected to express a NICD responsive luciferase reporter gene construct (pGL2-CBF-Luc). […] Stable cell lines expressing rat NotchΔE were then identified in the second step by including a gamma-secretase inhibitor in the selection process (to suppress Notch/NICD toxicity) following transfection of the rat Notch-ΔE construct. […] This vector drives expression of a truncated rat Notch construct corresponding to the c-terminal product following ecto-domain shedding of full length rat Notch protein. The c-terminal product is a constitutive substrate for gamma-secretase cleavage, resulting in release of the cytoplasmic Notch intracellular domain (NICD) product, which translocates to the nucleus and relieves CBF repressed genes. Subsequently, pIRES-ZEDN transfected cells were re-plated at low density in the presence of test compound, and selected with three antibiotics (G418 (0.5 mg/ml)/Hygro (1 mg/ml)/Puro (2.5 mg/ml)). The antibiotic-resistant colonies (named SNC clones for the dual-assay components: APPSwe/NotchΔE/CBF) were isolated and expanded for characterization of Aβ secretion, and NICD responsive reporter gene activity (i.e. luciferase signal in the presence versus absence of test compound). […] A typical dual-assay experiment was performed as follows: Day 1, the SNC cells were plated in 96-well assay plates in inhibitor-free media. Day 2, the cells were fed with fresh media (inhibitor free) and treated with test compounds over a concentration range 0 nM to 40,000 nM (in 10× incremental dilutions) one hour after the media change. The cells were treated with compounds overnight at 37° C. […] For the Notch signaling assay, the cells were lysed and luciferase activity from the lysate was measured using the Promega kit (see below). Day 4, Aβ-ELISA part II was conducted using 3D6-biotin/AP-streptavidin antibodies.

| SMILES | Selectivity Ratio (Notch IC50/Aβ ED50) |
| --- | --- |
| O=S(=O)(c1ccc(C(F)(F)F)cc1)N1C2Cc3[nH]ncc3C1CC(c1csnn1)C2 (racemic) [(±)-6-(1,2,3-thiadiazol-4-yl)-10-{[4-(trifluoromethyl)phenyl]sulfonyl}-4,5,6,7,8,9-hexahydro-1H-4,8-epiminocycloocta[c]pyrazole] | (^++) |
| O=S(=O)(c1ccc(C(F)(F)F)nc1)N1C2Cc3[nH]ncc3C1CC(c1ccc3c(c1)OCO3)C2 (racemic) [(±)-6-(1,3-benzodioxol-5-yl)-10-{[6-(trifluoromethyl)pyridin-3-yl]sulfonyl}-4,5,6,7,8,9-hexahydro-1H-4,8-epiminocycloocta[c]pyrazole] | (+) ((+) means a ratio from about 50 to about 99) |
| O=S(=O)(c1ccc(C(F)(F)F)cc1)N1C2Cc3[nH]ncc3C1CC(c1cccc(Br)c1)C2 (racemic) [(±)-6-(3-bromophenyl)-10-{[4-(trifluoromethyl)phenyl]sulfonyl}-4,5,6,7,8,9-hexahydro-1H-4,8-epiminocycloocta[c]pyrazole] | (+) ((+) means a ratio from about 50 to about 99) |
| O=S(=O)(c1ccc(C(F)(F)F)cc1)N1C2Cc3[nH]ncc3C1CC(c1cccc(-n3cccn3)c1)C2 (racemic) [(±)-6-[3-(1H-pyrazol-1-yl)phenyl]-10-{[4-(trifluoromethyl)phenyl]sulfonyl}-4,5,6,7,8,9-hexahydro-1H-4,8-epiminocycloocta[c]pyrazole] | (+) ((+) means a ratio from about 50 to about 99) |
| O=S(=O)(c1ccc(C(F)(F)F)cc1)N1C2Cc3[nH]ncc3C1c1cccc(-c3cccc(C(F)(F)F)c3)c1C2 (racemic) [(±)-7-[3-(trifluoromethyl)phenyl]-12-{[4-(trifluoromethyl)phenyl]sulfonyl}-4,5,6,11-tetrahydro-3H-5,11-epiminobenzo[4,5]cycloocta[1,2-c]pyrazole] | (++) ((++) means a ratio from about 100 to about 149) |
| O=S(=O)(c1ccc(C(F)(F)F)nc1)N1C2Cc3[nH]ncc3C1c1ncc(F)cc12 (racemic) [(±)-7-fluoro-11-{[6-(trifluoromethyl)pyridin-3-yl]sulfonyl}-1,4,9,10-tetrahydro-4,9-epiminopyrazolo[3′,4′: 5,6]cyclohepta[1,2-b]pyridine] | (+) ((+) means a ratio from about 50 to about 99) |
| Cc1noc(C2CC3Cc4[nH]ncc4C(C2)N3S(=O)(=O)c2ccc(Cl)cc2)n1 (racemic) [(±)-10-[(4-chlorophenyl)sulfonyl]-6-(3-methyl-1,2,4-oxadiazol-5-yl)-4,5,6,7,8,9-hexahydro-1H-4,8-epiminocycloocta[c]pyrazole] | (++++) ((++++) means a ratio of Notch IC50/Aβ EC50 (determined as described in Example D) of >200) |
| Cc1cc(C2CC3Cc4[nH]ncc4C(C2)N3S(=O)(=O)c2ccc(Cl)cc2)on1 (racemic) [(±)-10-[(4-chlorophenyl)sulfonyl]-6-(3-methylisoxazol-5-yl)-4,5,6,7,8,9-hexahydro-1H-4,8-epiminocycloocta[c]pyrazole] | (++++) ((++++) means a ratio of Notch IC50/Aβ EC50 (determined as described in Example D) of >200) |
| O=S(=O)(c1ccc(C(F)(F)F)nc1)N1C2Cc3[nH]ncc3C1CC(c1nc(C(F)(F)F)cs1)C2 (racemic) [(±)-10-{[6-(trifluoromethyl)pyridin-3-yl]sulfonyl}-6-[4-(trifluoromethyl)-1,3-thiazol-2-yl]-4,5,6,7,8,9-hexahydro-1H-4,8-epiminocycloocta[c]pyrazole] | (+++) ((+++) means a ratio from about 150 to about 199) |
| O=S(=O)(c1ccc(C(F)(F)F)nc1)N1C2Cc3[nH]ncc3C1CC(c1ccc(F)cc1)C2 (racemic) [(±)-endo-6-(4-fluorophenyl)-10-{[6-(trifluoromethyl)pyridin-] [(±)-endo-6-(4-fluorophenyl)-10-{[6-(trifluoromethyl)pyridin-3-yl]sulfonyl}-4,5,6,7,8,9-hexahydro-1H-4,8-epiminocycloocta[c]pyrazole] | (++) ((++) means a ratio from about 100 to about 149) |
| O=S(=O)(c1ccc(C(F)(F)F)nc1)N1C2Cc3[nH]ncc3C1CC(c1ccc(F)cc1)C2 (racemic) [(±)-exo-6-(4-fluorophenyl)-10-{[6-(trifluoromethyl)pyridin-3] [(±)-exo-6-(4-fluorophenyl)-10-{[6-(trifluoromethyl)pyridin-3-yl]sulfonyl}-4,5,6,7,8,9-hexahydro-1H-4,8-epiminocycloocta[c]pyrazole] | (+++) ((+++) means a ratio from about 150 to about 199) |
| O=S(=O)(c1ccc(C(F)(F)F)cc1)N1C2c3cn[nH]c3C(F)C1c1cccc(F)c12 (single isomer, unassigned; (+)) [(+)-5,10-difluoro-11-{[4-(trifluoromethyl)phenyl]sulfonyl}-1,4,9,10-tetrahydro-4,9-epiminobenzo[4,5]cyclohepta[1,2-c]pyrazole] | (++) ((++) means a ratio from about 100 to about 149) |
